Columns and labels:
[1] = Potentiometric titration of the ligand with KOH: deprotonation constants; assay type: physicochemical; settings: titration with KOH in KCl 0.1M, 298 K
Excerpt: (§1) The three sulfonates are fully deprotonated under the experimental conditions used. The deprotonation constants of H9thqtcn-SO3^3+ are defined as Kai=[H9-iL]^(1-i) [H]^+/[H8-iL]^(2-i)+. Analysis of the potentiometric curves enabled precise determination of 6 deprotonation constants (pKa8=2.9(2), pKa7=5.34(5), pKa6=8.01(8), pKa5=8.78(1), pKa4=8.98(4), pKa3=10.25(2)), whereas it was possible only to obtain the sum pKa1+pKa2=(22.51(3)).

[2] = Stability of the Gd complex (pGd) by UV-visible spectrophotometry in HEPES buffer pH 7.4; assay type: physicochemical; settings: pH 7.4, HEPES, [M]total=1 mM, [bpatcn]total=10 mM
Description: Appreciably, the interaction between the lanthanide ions and the ligand was monitored by UV-visible spectrophotometry for a representative ion of intermediate size, namely Gd in dilute aqueous solutions, buffered with HEPES at pH 7.4. The value of pGd (pM=−log [M]free at pH 7.4, [M]total=1 mM and [bpatcn]total=10 mM), which allows a simple and direct comparison of the stabilities of the complexes under physiological conditions, found for thqtcn-SO3^6−(19) is similar to the value reported for the gadolinium complexes of diethylenetriaminepentaacetic acid (dtpa) (pGd=19.6), which are widely acknowledged as non-toxic.

[3] = Solubility observations; assay type: physicochemical; settings: aqueous, potentiometric titration conditions
Excerpt: as §1
The elemental analyses of all the complexes are compatible with the presence of analytically pure [Ln(thqtcn)] species. These complexes are insoluble in all the commonly used laboratory solvents.
As hoped, this ligand results in Ln(III) complexes that are water-soluble at physiological pHs.

[4] = gadolinium complexes of dtpa; cited from earlier work

1,4,7-tris[2-(5-sulfo-8-hydroxyquinolinyl)methyl]-1,4,7-triaza-cyclononane [H6thqtcn-SO3]
pKa3 [1]: 10.25(2) | pKa4 [1]: 8.98(4) | pKa5 [1]: 8.78(1) | pKa6 [1]: 8.01(8) | pKa7 [1]: 5.34(5) | pKa8 [1]: 2.9(2) | sum pKa1+pKa2 [1]: 22.51(3) | pGd (pM=-log [M]free) [2]: 19 | solubility of the ligand [3]: high solubility

O=C(O)CN(CCN(CC(=O)O)CC(=O)O)CCN(CC(=O)O)CC(=O)O [dtpa, diethylenetriaminepentaacetic acid]
pGd (reported value) [4]: 19.6

From patent publication US8268355B2, “Silica particle comprising an organolanthanide compound, preparation process therefor and uses thereof” (Commissariat a l'Energie Atomique, priority 2008, dated 2012)
